From patent US20150336889A1, “INDOLE DERIVATIVES, PHARMACEUTICAL COMPOSITIONS CONTAINING SUCH INDOLES AND THEIR USE AS DNA METHYLATION MODULATORS” (IKERCHEM, S.L., priority 2012, published 2015)
pEC50, pIC50: −log10 of the molar value.

Columns and labels:
PC3 = assay: Cancer cell growth inhibition, PC3; format: cell-based; settings: Homo sapiens, PC-3; Prostate, PC3, cell viability, 72 h
Protocol: (§1) Cell culture-based assays were used to evaluate the ability of compounds of the invention to inhibit cancer cell growth inhibition.
(§2) Cells were obtained from the American Type Culture Collection (ATCC) and European Collection of Cell Cultures (ECACC).
(§3) Cells were thawed in their appropriate media plus supplements (see table below). Cells were passaged at confluence by washing once in HBSS cation-free followed by a 3 minutes incubation with trypsin ([0.5 μg/ml]/EDTA [0.2 μg/ml]) (Gibco-BRL, 15400054) solution in HBSS at 37° C. (except non-adherent cell lines), and transferred to their appropriate media plus supplements. Prior to seeding at defined cell concentration, cells were recovered in medium, centrifuged and taken up in medium, and counted.
(§4) Cells were plated at 3000/5000/10000 cells/well in 100 μl media in tissue culture 96 well plates (Cultek). After 24 h, media was supplemented by 100 μl/well of diluted IPDNs at 100 μM.
(§5) The Hexosaminidase assay was used for the adherent cell lines, whereas the AlamarBlue® assay was used for the non-adherent cell lines.
(§6) Dose-response curves were generated by serial dilutions (1:1) of the compounds. […] Reagent blanks, containing media plus colorimetric reagent without cells were run on each plate. Blank values were subtracted from test values and were routinely 5-10% of uninhibited control values. Plates were incubated 72 h, and living cell number was determined by AlamarBlue® and Hexosaminidase test. The advantages of using those assays are that both can be done in the same microwell plate. AlamarBlue® assay: plates were incubated 72 h and living cell number was determined by AlamarBlue (Biosource DAL1100). After 4 h incubation at 37° C., relative fluorescent intensity, which correlates with the number of living cells, was read in a Cytofluor plate reader (Millipore) at 535/590 nm (Excitation/emission). The hexosaminidase activity was measured according to the following protocol: the media was removed and cells were washed once with PBS.
(§7) Data analysis was done by calculating the percentage of cell viability normalized in front of negative control values, which were considered as a 100%. The curve was adjusted using a sigmoidal dose-response (variable slope) equation and EC50 values were obtained from the equation
(§8) where, X is the logarithm of concentration. Y is the response. Bottom is the Y value at the bottom plateau Top is the Y value at the top plateau LogEC50 is the X value when the response is halfway between Bottom and Top. With different kinds of variables, this variable is sometimes called ED50 (effective dose, 50%), or IC50 (inhibitory concentration, 50%, used when the curve goes downhill).

U-87MG = assay: Cancer cell growth inhibition, U-87MG; format: cell-based; settings: Homo sapiens, Brain, cell viability, 72 h
Protocol: as §1, §2, §3, §4, §5, §6, §7, §8

HT-1080 = assay: Cancer cell growth inhibition, HT-1080; format: cell-based; settings: Homo sapiens; HT-1080, cell viability, 72 h
Protocol: as §1, §2, §3, §4, §5, §6, §7, §8

CCFR-CEM = assay: Cancer cell growth inhibition, CCFR-CEM; format: cell-based; settings: Hematologic, cell viability, 72 h
Protocol: as §1, §2, §3, §4, §5, §6, §7, §8

LoVo = assay: Cancer cell growth inhibition, LoVo; format: cell-based; settings: Homo sapiens, Colorectal, cell viability, 72 h
Protocol: as §1, §2, §3, §4, §5
as §6, with “PBS. […]” for “PBS.”

A-549 = assay: Cancer cell growth inhibition, A-549; format: cell-based; settings: Homo sapiens, A549; Lung, A-549, cell viability, 72 h
Protocol: as §1, §2, §3, §4, §5, §6, §7, §8

DU-145 = assay: Cancer cell growth inhibition, DU-145; format: cell-based; settings: Homo sapiens; Prostate, DU-145, cell viability, 72 h
Protocol: as §1, §2, §3, §4, §5
as §6, with “PBS. […]” for “PBS.”

RPMI-8226 = assay: Cancer cell growth inhibition, RPMI-8226; format: cell-based; settings: Homo sapiens; Multiple Myelome, RPMI-8226, cell viability, 72 h
Protocol: as §1, §2, §3, §4, §5, §6, §7, §8

Human DNMT1 = molecular target: T1, Human DNMT1 (Homo sapiens, UniProt P26358); assay: DNMT1 enzymatic activity inhibition, radioisotope-based 3H-SAM filter binding assay; format: biochemical; settings: 1 μM SAM, 25 nM DNMT1, 0.005 mg/ml Poly(dI-dC), 30° C. 1 hour, 10-dose
T1 construct: a-a 2-1632, with N-terminal GST tag; GST (N)
T1 sequence (P26358 2-1632 isoform P26358-2): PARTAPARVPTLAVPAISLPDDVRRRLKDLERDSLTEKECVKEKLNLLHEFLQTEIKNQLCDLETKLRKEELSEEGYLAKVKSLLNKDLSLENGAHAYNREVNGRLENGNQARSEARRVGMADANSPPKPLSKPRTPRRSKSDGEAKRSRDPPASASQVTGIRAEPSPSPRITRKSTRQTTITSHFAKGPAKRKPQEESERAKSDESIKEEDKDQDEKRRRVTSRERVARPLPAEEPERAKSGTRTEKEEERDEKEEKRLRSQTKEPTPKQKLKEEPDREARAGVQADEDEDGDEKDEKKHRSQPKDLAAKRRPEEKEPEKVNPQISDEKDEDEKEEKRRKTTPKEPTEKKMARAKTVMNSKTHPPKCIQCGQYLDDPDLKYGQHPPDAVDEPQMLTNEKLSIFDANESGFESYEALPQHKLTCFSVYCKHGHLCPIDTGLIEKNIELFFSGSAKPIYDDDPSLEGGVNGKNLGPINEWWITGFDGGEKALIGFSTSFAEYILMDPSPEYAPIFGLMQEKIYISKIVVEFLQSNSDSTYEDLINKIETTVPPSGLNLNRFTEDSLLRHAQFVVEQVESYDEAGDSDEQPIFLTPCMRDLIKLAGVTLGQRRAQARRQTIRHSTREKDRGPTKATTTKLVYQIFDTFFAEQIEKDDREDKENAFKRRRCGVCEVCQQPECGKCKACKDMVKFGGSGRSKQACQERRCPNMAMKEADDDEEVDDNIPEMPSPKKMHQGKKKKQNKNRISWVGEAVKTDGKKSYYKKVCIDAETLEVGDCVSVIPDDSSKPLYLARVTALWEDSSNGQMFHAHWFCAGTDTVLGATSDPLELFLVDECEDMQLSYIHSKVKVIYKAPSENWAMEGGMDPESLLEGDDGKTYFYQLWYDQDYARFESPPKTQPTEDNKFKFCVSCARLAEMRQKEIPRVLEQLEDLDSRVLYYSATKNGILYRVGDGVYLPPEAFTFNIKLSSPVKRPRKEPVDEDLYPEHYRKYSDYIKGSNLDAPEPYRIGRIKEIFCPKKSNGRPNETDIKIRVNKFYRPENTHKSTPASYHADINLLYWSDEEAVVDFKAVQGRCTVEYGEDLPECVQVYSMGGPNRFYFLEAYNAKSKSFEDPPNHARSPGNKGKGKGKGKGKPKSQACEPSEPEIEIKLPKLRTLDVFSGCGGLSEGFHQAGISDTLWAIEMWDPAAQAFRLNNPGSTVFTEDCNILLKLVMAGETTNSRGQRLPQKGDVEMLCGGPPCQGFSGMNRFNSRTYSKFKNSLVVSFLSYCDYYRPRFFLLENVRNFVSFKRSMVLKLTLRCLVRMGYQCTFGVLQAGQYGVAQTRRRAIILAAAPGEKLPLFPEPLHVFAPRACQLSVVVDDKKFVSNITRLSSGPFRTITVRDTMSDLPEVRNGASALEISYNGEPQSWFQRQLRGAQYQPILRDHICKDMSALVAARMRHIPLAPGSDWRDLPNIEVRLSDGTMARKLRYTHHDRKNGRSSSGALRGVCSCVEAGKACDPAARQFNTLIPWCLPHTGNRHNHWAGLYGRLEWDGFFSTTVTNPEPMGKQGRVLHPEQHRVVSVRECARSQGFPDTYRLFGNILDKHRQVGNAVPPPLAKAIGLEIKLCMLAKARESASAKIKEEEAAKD
Protocol: The inhibition of the enzymatic activity of DNMT1 was tested using low volume radioisotope-based assay which uses tritium-labeled AdoMet (^3H-SAM) as a methyl donor. Inhibitors diluted in DMSO were added by using acoustic technology (Echo550, Labcyte Inc. Sunnyvale, Calif.) into enzyme/substrate mixture in nano-liter range. The reaction was initiated by the addition of ^3H-SAM, and incubated at 30° C. for 1 hour. Total final methylations on the substrate poly(dI-dC) were detected by a filter binding approach. Data analysis was performed using GraphPad Prism software (La Jolla, Calif.) for IC50 curve fits.

LnCaP = assay: Cancer cell growth inhibition, LnCaP; format: cell-based; settings: Homo sapiens, Prostate, cell viability, 72 h
Protocol: as §1, §2, §3, §4, §5, §6, §7, §8

MDA-MB-435 = assay: Cancer cell growth inhibition, MDA-MB-435; format: cell-based; settings: Homo sapiens; Melanoma, MDA-MB-435, cell viability, 72 h
Protocol: as §1, §2, §3, §4, §5, §6, §7, §8

Panc-1 = assay: Cancer cell growth inhibition, Panc-1; format: cell-based; settings: Homo sapiens; Pancreatic, Panc-1, cell viability, 72 h
Protocol: as §1, §2, §3, §4, §5, §6, §7, §8

Jurkat = assay: Cancer cell growth inhibition, Jurkat; format: cell-based; settings: Homo sapiens, Hematologic, cell viability, 72 h
Protocol: as §1, §2, §3, §4, §5, §6, §7, §8

LS174T = assay: Cancer cell growth inhibition, LS174T; format: cell-based; settings: Homo sapiens, Colorectal, cell viability, 72 h
Protocol: as §1, §2
as §3, with “counted. […]” for “counted.”
(§9) Dose-response curves were generated by serial dilutions (1:1) of the compounds. […] Plates were incubated 72 h, and living cell number was determined by AlamarBlue® and Hexosaminidase test. […] AlamarBlue® assay: plates were incubated 72 h and living cell number was determined by AlamarBlue (Biosource DAL1100). After 4 h incubation at 37° C., relative fluorescent intensity, which correlates with the number of living cells, was read in a Cytofluor plate reader (Millipore) at 535/590 nm (Excitation/emission). The hexosaminidase activity was measured according to the following protocol: the media was removed and cells were washed once with PBS. […]

Colo205 = assay: Cancer cell growth inhibition, Colo205; format: cell-based; settings: Homo sapiens, COLO 205; Colorectal, Colo205, cell viability, 72 h
Protocol: as §1, §2, §3, §4, §5
as §6, with “PBS. […]” for “PBS.”

K562 = assay: Cancer cell growth inhibition, K562; format: cell-based; settings: Homo sapiens; Hematologic, K562, cell viability, 72 h
Protocol: as §1, §2, §3, §4, §5
as §6, with “PBS. […]” for “PBS.”

SK-OV-3 = assay: Cancer cell growth inhibition, SK-OV-3; format: cell-based; settings: Homo sapiens; Ovarian, SK-OV-3, cell viability, 72 h
Protocol: as §1, §2, §3, §4, §5
as §6, with “PBS. […]” for “PBS.”

NCI-H1975 = assay: Cancer cell growth inhibition, NCI-H1975; format: cell-based; settings: Homo sapiens; Lung, NCI-H1975, cell viability, 72 h
Protocol: as §1, §2, §3, §4, §5, §6, §7, §8

RAMOS = assay: Cancer cell growth inhibition, RAMOS; format: cell-based; settings: Homo sapiens, Hematologic, cell viability, 72 h
Protocol: as §1, §2, §3, §4, §5, §6, §7, §8

U-373MG = assay: Cancer cell growth inhibition, U-373MG; format: cell-based; settings: Homo sapiens, U373 MG, Brain, cell viability, 72 h
Protocol: as §1, §2, §3, §4, §5
as §6, with “PBS. […]” for “PBS.”

NCI-H358 = assay: Cancer cell growth inhibition, NCI-H358; format: cell-based; settings: Homo sapiens; Lung, NCI-H358, cell viability, 72 h
Protocol: as §1, §2, §3, §4, §5, §6, §7, §8

SK-MEL-28 = assay: Cancer cell growth inhibition, SK-MEL-28; format: cell-based; settings: Homo sapiens; Melanoma, SK-MEL-28, cell viability, 72 h
Protocol: as §1, §2, §3, §4, §5
as §6, with “PBS. […]” for “PBS.”

143B = assay: Cancer cell growth inhibition, 143B; format: cell-based; settings: Homo sapiens, Osteosarcoma, cell viability, 72 h
Protocol: as §1, §2, §3, §4, §5, §6, §7, §8

HCT-116 = assay: Cancer cell growth inhibition, HCT-116; format: cell-based; settings: Homo sapiens; Colorectal, HCT-116, cell viability, 72 h
Protocol: as §1, §2, §3, §4, §5, §6, §7, §8

SW-480 = assay: Cancer cell growth inhibition, SW-480; format: cell-based; settings: Homo sapiens, SW480; Colorectal, SW-480, cell viability, 72 h
Protocol: as §1, §2
as §3, with “counted. […]” for “counted.”
as §9

Daoy = assay: Cancer cell growth inhibition, Daoy; format: cell-based; settings: Homo sapiens, Brain, cell viability, 72 h
Protocol: as §1, §2, §3, §4, §5, §6, §7, §8

MCF-7 = assay: Cancer cell growth inhibition, MCF-7; format: cell-based; settings: Homo sapiens, MCF7; Breast, MCF-7, cell viability, 72 h
Protocol: as §1, §2, §3, §4, §5, §6, §7, §8

T47D = assay: Cancer cell growth inhibition, T47D; format: cell-based; settings: Homo sapiens, Breast, cell viability, 72 h
Protocol: as §1, §2, §3, §4, §5, §6, §7, §8

NCI-H1650 = assay: Cancer cell growth inhibition, NCI-H1650; format: cell-based; settings: Homo sapiens; Lung, NCI-H1650, cell viability, 72 h
Protocol: as §1, §2, §3, §4, §5
as §6, with “PBS. […]” for “PBS.”

MiaPaCa-2 = assay: Cancer cell growth inhibition, MiaPaCa-2; format: cell-based; settings: Homo sapiens, MIA PaCa-2; Pancreatic, MiaPaCa-2, cell viability, 72 h
Protocol: as §1, §2, §3, §4, §5, §6, §7, §8

BxPC3 = assay: Cancer cell growth inhibition, BxPC3; format: cell-based; settings: Homo sapiens, BXPC-3; Pancreatic, BxPC3, cell viability, 72 h
Protocol: as §1, §2, §3, §4, §5
as §6, with “PBS. […]” for “PBS.”

HeLa = assay: Cancer cell growth inhibition, HeLa; format: cell-based; settings: Homo sapiens, Cervical, cell viability, 72 h
Protocol: as §1, §2, §3, §4, §5
as §6, with “PBS. […]” for “PBS.”

A-431 = assay: Cancer cell growth inhibition, A-431; format: cell-based; settings: Homo sapiens; Epidermoid, A-431, cell viability, 72 h
Protocol: as §1, §2, §3, §4, §5, §6, §7, §8

SK-BR-3 = assay: Cancer cell growth inhibition, SK-BR-3; format: cell-based; settings: Homo sapiens; Breast, SK-BR-3, cell viability, 72 h
Protocol: as §1, §2, §3, §4, §5
as §6, with “PBS. […]” for “PBS.”

| pEC50 (U-87MG) | pEC50 (HT-1080) | pEC50 (CCFR-CEM) | pEC50 (A-549) | pIC50 (Human DNMT1) | pEC50 (LnCaP) | pEC50 (MDA-MB-435) | pEC50 (Panc-1) | pEC50 (Jurkat) | pEC50 (NCI-H1975) | pEC50 (RAMOS) | pEC50 (U-373MG) | pEC50 (NCI-H358) | pEC50 (HCT-116) | pEC50 (Daoy) | pEC50 (MCF-7) | pEC50 (MiaPaCa-2) | SMILES | also measured |
| --- | --- | --- | --- | --- | --- | --- | --- | --- | --- | --- | --- | --- | --- | --- | --- | --- | --- | --- |
| 4.30 | 4.70 | 5.12 | 4.46 | 4.40 | 4.52 | 4.96 | 4.64 | 5.05 | 4.52 | 4.92 | 4.24 | 4.29 | 4.66 | 5.18 | 4.92 | 4.19 | COc1cc(OC)c2c(-c3ccc(O)c(O)c3O)cn(CC(=O)c3ccc(O)c(O)c3O)c2c1 [Example 11, 2-[4,6-dimethoxy-3-(2,3,4-trihydroxyphenyl)-1H-indol-1-yl]-1-(2,3,4-trihydroxyphenyl)ethanone] | pEC50 (PC3): 4.59; pEC50 (LoVo): 4.30; pEC50 (DU-145): 4.33; pEC50 (RPMI-8226): 4.22; pEC50 (LS174T): 4.21; pEC50 (Colo205): 4.62; pEC50 (K562): 4.16; pEC50 (SK-OV-3): 4.14; pEC50 (SK-MEL-28): 4.48; pEC50 (143B): 4.00; pEC50 (SW-480): 4.62; pEC50 (T47D): 4.52; pEC50 (NCI-H1650): 4.24 |
| 4.70 | 4.51 | 4.35 | 4.01 | 4.86 | 4.55 | 4.85 | 4.57 | 4.62 | 4.34 | 4.29 | 4.68 | 4.96 | 4.29 | 4.33 | 4.52 | 4.18 | COc1ccc2c(-c3ccc(O)c(O)c3)cn(CC(=O)c3ccc(O)c(O)c3)c2c1 [Example 4, 1-(3,4-dihydroxyphenyl)-2-[3-(3,4-dihydroxyphenyl)-6-methoxy-1H-indol-1-yl]ethanone] | pEC50 (BxPC3): 4.28; pEC50 (HeLa): 4.44; pEC50 (A-431): 4.52; pEC50 (SK-BR-3): 4.70 |
